Experimental data published in US6825230B2, “Spiro and dispiro 1,2,4-trixolane antimalarials” (Medicines for Malaria Venture MMV, priority 2002, dated 2004).
Converted amounts (≈) assume the structure as drawn.

What was measured:
[1] = system: chloroquine-resistant K1 strain of P. falciparum; assay: In vitro antimalarial semiautomated microdilution assay ([3H]-hypoxanthine incorporation), K1 strain; assay type: cell-based, Plasmodium falciparum; conditions: for IC50: Plasmodium falciparum, K1, 72 h, read-out: IC50 (ng/ml) K1, chloroquine-resistant K1 strain, 72 h incubation
Method in brief: (§1)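 Asynchronous stock-culture parasites (intraerythrocytic forms), serial compound dilutions; readout [3H]-hypoxanthine uptake; IC50 via Logit regression.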

[2] = system: chloroquine-sensitive NF54 strain of P. falciparum; assay: In vitro antimalarial semiautomated microdilution assay ([3H]-hypoxanthine incorporation), NF54 strain; assay type: cell-based, Plasmodium falciparum; conditions: for IC50: Plasmodium falciparum, NF54, 72 h, read-out: IC50 (ng/ml) NF54, chloroquine-sensitive NF54 strain, 72 h incubation
Method in brief: as §1

[3] = system: ANKA strain of P. berghei; assay: Single dose STI in vivo screen in infected mice; parameters: species or system Plasmodium berghei; conditions: for Survival (days) 10 mg/kg po: single 10 mg/kg po in 3% ethanol and 7% Tween 80; for Survival (days) 10 mg/kg po / Survival (days) 10 mg/kg SSV po / Survival (days) 10 mg/kg sc: untreated 6-7 days; for Activity (%) 10 mg/kg po: single 10 mg/kg po in 3% ethanol and 7% Tween 80 on day 1 post-infection; for Activity (%) 10 mg/kg po / Activity (%) 10 mg/kg SSV po / Activity (%) 10 mg/kg sc: percent reduction in parasitemia on day 3; for Survival (days) 10 mg/kg SSV po: single 10 mg/kg po in SSV; for Activity (%) 10 mg/kg SSV po: single 10 mg/kg po in standard suspending vehicle (SSV) on day 1 post-infection; for Survival (days) 10 mg/kg sc: single 10 mg/kg sc in 3% ethanol and 7% Tween 80; for Activity (%) 10 mg/kg sc: single 10 mg/kg sc in 3% ethanol and 7% Tween 80 on day 1 post-infection

SMILES | IC50 [1] [ng/mL] | IC50 [2] [ng/mL] | Survival (days) 10 mg/kg po [3] [days] | Activity (%) 10 mg/kg po [3] [%] | Survival (days) 10 mg/kg SSV po [3] [days] | Activity (%) 10 mg/kg SSV po [3] [%] | Survival (days) 10 mg/kg sc [3] [days] | Activity (%) 10 mg/kg sc [3] [%] | IC50 (ng/ml) K1 ([1]; chloroquine-resistant K1 strain, 72 h incubation, hydrochloride) [ng/mL] | IC50 (ng/ml) NF54 ([2]; chloroquine-sensitive NF54 strain, 72 h incubation, hydrochloride) [ng/mL] | Survival (days) 10 mg/kg po ([3]; hydrochloride, 10 mg/kg) [days] | Activity (%) 10 mg/kg po ([3]; hydrochloride, 10 mg/kg) [%] | Survival (days) 10 mg/kg SSV po ([3]; hydrochloride, 10 mg/kg) [days] | Activity (%) 10 mg/kg SSV po ([3]; hydrochloride, 10 mg/kg) [%] | Survival (days) 10 mg/kg sc ([3]; hydrochloride, 10 mg/kg) [days] | Activity (%) 10 mg/kg sc ([3]; hydrochloride, 10 mg/kg) [%]
O=C(O)c1ccc(OC[C@H]2CC[C@]3(CC2)OOC2(O3)C3CC4CC(C3)CC2C4)cc1 (stereo partly drawn) [OZ176] | 25 (≈ 0.0603 µM) | 35 (≈ 0.0844 µM) | 7.0 | 11 | 7.7 | 18 | 7.0 | 24 |  |  |  |  |  |  |  | 
CS(=O)(=O)c1ccc([C@H]2CC[C@]3(CC2)OOC2(O3)C3CC4CC(C3)CC2C4)cc1 (stereo partly drawn) [OZ178] | 21 (≈ 0.0502 µM) | 27 (≈ 0.0645 µM) | 7.3 | 32 | 7.3 | 23 | 10.0 | 31 |  |  |  |  |  |  |  | 
CC1(C)COC(c2ccc([C@H]3CC[C@]4(CC3)OOC3(O4)C4CC5CC(C4)CC3C5)cc2)=N1 (stereo partly drawn) [OZ180] |  |  |  |  |  |  |  |  | 3.7 (≈ 0.00846 µM) | 2.8 (≈ 0.0064 µM) | 13.7 | 99.91 | 12.7 | 97 | 10.3 | 65
O=C(OCCn1ccnc1)C1CCC2(CC1)OOC1(O2)C2CC3CC(C2)CC1C3 (stereo not drawn) [OZ182] | 4.5 (≈ 0.0112 µM) | 5.5 (≈ 0.0137 µM) | 8.0 | 91 | 7.3 | 96 | 7.7 | 95 |  |  |  |  |  |  |  | 
O=C(NO)c1ccc([C@H]2CC[C@]3(CC2)OOC2(O3)C3CC4CC(C3)CC2C4)cc1 (stereo partly drawn) [OZ183] | 0.8 (≈ 0.002 µM) | 2.1 (≈ 0.00526 µM) | 6.0 | 65 | 6.0 | 19 | 8.3 | 81 |  |  |  |  |  |  |  | 
C1CC1CNC1CCC2(CC1)OOC1(O2)C2CC3CC(C2)CC1C3 (stereo not drawn) [OZ184] | 1 (≈ 0.003 µM) | 1.4 (≈ 0.0042 µM) | 6.7 | 54 | 7.0 | 59 | 8.7 | 97 |  |  |  |  |  |  |  | 
C1C2CC3CC1CC(C2)C31OOC2(CCC(NC3CC3)CC2)O1 (stereo not drawn) [OZ185] | 1.1 (≈ 0.00344 µM) | 1.4 (≈ 0.00438 µM) | 7.7 | 86 | 6.7 | 56 | 10.7 | 99.96 |  |  |  |  |  |  |  | 
COCC(=O)N[C@H]1CC[C@]2(CC1)OOC1(O2)C2CC3CC(C2)CC1C3 (stereo partly drawn) [OZ186] | > 10 | > 10 | 8.0 | 87 | 9.0 | 96 | 8.0 | 67 |  |  |  |  |  |  |  | 
CN(C)C(=O)N[C@H]1CC[C@]2(CC1)OOC1(O2)C2CC3CC(C2)CC1C3 (stereo partly drawn) [OZ187] | 4 (≈ 0.0114 µM) | 6.8 (≈ 0.0194 µM) | 7.7 | 77 | 10.0 | 94 | 7.0 | 77 |  |  |  |  |  |  |  | 
